Experimental data published in article PMC5117135 (ACS Chemical Biology, 2016).

Assays:
[1] = tested on: P. aeruginosa PA14; assay: Compound accumulation, LC-MS/MS quantitation of lysate; format: cell-based, Pseudomonas aeruginosa; conditions: 1000 μM extracellular, 30 min
[2] = tested on: HHQ and PQS quinolone production in P. aeruginosa strain PA14; assay: Inhibition of HHQ and PQS quinolone production, LC-MS/MS quantitation; format: cell-based, Pseudomonas aeruginosa; conditions: dose and time course over 24 h
[3] = tested on: MvfR; conditions: binding to and activation of MvfR; cited from earlier work
[4] = tested on: PqsA; conditions: read-out: Km as PqsA substrate; cited from earlier work

With Nc1cccc(F)c1C(=O)O [6FABA, 6-Fluoroanthranilate] the “penetration relative to the extracellular concentration applied” value [1] was 2–3%, the intracellular concentration ([1]; PA14 in LB, OD600 ≈ 0.5, calculated based on CFU) was 20 to 30 µM and the “lowest concentration that inhibited or delayed quinolone production” value [2] was 100 µM.
In the case of CCCCCCCc1nc2ccccc2c(O)c1O [PQS, 3,4-dihydroxy-2-heptylquinoline], the “potency on MvfR relative to HHQ” value [3] is given as 100 fold.
In the case of Nc1ccccc1C(=O)O [anthranilate], the Km [4] is listed as 8 µM.
For O=C(O)c1ccccc1 [benzoate], the Km [4] is given as 150 µM.
